Active and inactive are the calls of the source.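 The calls were made as follows: active = EC50 at or below 20 micromolar; inactive = the rest.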
Biological target: Neurotensin receptor type 1 (Homo sapiens) (UniProt P30989)
Assay: NTR1 agonists, beta-arrestin recruitment, SAR follow-up, orthogonal assay for NTR1 agonist project, cell-based, luminescence, CHO-K1 NTSR1 PathHunter (AID 602427);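 also: agonist potency for NTR1 activation where higher luminescence means more arrestin recruitment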

Neurotensin receptor type 1 (Homo sapiens), sequence (P30989 whole entry, looked up): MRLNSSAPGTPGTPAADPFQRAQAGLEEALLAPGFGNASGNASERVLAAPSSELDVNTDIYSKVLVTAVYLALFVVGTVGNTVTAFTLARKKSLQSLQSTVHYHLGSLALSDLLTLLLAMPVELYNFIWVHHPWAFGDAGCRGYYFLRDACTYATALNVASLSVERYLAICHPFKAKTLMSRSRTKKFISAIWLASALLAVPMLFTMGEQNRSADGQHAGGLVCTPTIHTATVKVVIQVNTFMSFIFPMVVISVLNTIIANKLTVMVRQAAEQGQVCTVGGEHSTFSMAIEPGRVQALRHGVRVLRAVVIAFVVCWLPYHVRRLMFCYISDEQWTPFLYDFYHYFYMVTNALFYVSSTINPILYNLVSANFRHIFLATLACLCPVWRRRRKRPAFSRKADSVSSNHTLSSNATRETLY

EC50	Structure (SMILES)
> 33 µM (inactive)	COc1ccc(C(=O)c2cn(Cc3ccncc3)c3ccccc3c2=O)cc1
> 33 µM (inactive)	COc1ccc(C(=O)c2cn(Cc3ccccc3)c3ccccc3c2=O)cc1
> 33 µM (inactive)	Cc1ccc(-c2nnc3c4cc5c(cc4n(Cc4ccccc4)cc2-3)OCO5)cc1C
> 33 µM (inactive)	Fc1ccc(-n2ncc3c(N4CCN(c5ccccc5)CC4)ncnc32)cc1
> 33 µM (inactive)	COc1ccc2c3nnc(-c4ccc(C)cc4)c-3cn(Cc3ccc(F)cc3)c2c1
> 33 µM (inactive)	Cc1cccc(C)c1-c1nc(C(=O)N[C@@H](CC(C)C)C(=O)O)cn1-c1ccnc2cc(Cl)ccc12
> 33 µM (inactive)	Cc1ccc(-n2ncc3c(N4CCN(c5ccc(F)cc5)CC4)ncnc32)c(C)c1
> 33 µM (inactive)	COc1ccc(Cn2cc3c(-c4ccc(F)cc4)nnc-3c3cc(OC)c(OC)cc32)cc1
> 33 µM (inactive)	COc1ccccc1-c1nc(C(=O)N[C@@H](CC(C)C)C(=O)O)cn1-c1ccnc2cc(Cl)ccc12
> 33 µM (inactive)	COc1cc2c(=O)c(C(=O)c3ccc(F)cc3)cn(Cc3ccncc3)c2cc1OC
> 33 µM (inactive)	COc1ccc(-c2nnc3c4ccccc4n(CC4CC4)cc2-3)cc1
> 33 µM (inactive)	COc1cc2nc(-c3ccccc3)nc(N3CCN(c4ccccc4F)CC3)c2cc1OC
> 33 µM (inactive)	COc1ccc(/C=N/Nc2nc(-c3ccc(S(=O)(=O)N(C)C)cc3)cs2)cc1OC
> 33 µM (inactive)	COc1ccc(-c2nnc3c4ccccc4n(Cc4ccc(Cl)cc4)cc2-3)cc1
> 33 µM (inactive)	COc1cc2nc(-c3ccccc3)nc(N3CCN(c4ccc(Cl)cc4)CC3)c2cc1OC
> 33 µM (inactive)	COc1cccc(OC)c1-c1nc(C(=O)N[C@@H](CC(C)C)C(=O)O)cn1-c1ccncc1
> 33 µM (inactive)	Cc1ccc(-n2ncc3c(N4CCN(c5ccccc5)CC4)ncnc32)cc1
> 33 µM (inactive)	COc1ccc(-n2ncc3c(N4CCN(c5ccccc5)CC4)ncnc32)cc1
> 33 µM (inactive)	COc1ccc2c(c1)c1nnc(-c3ccc(F)cc3)c-1cn2Cc1ccccc1
> 33 µM (inactive)	COc1ccc(C(=O)c2cn(Cc3ccc(N(C)C)cc3)c3ccccc3c2=O)cc1
> 33 µM (inactive)	CC(C)C[C@H](NC(=O)c1cn(-c2ccnc3cc(Cl)ccc23)c(-c2c(Cl)cccc2Cl)n1)C(=O)O
> 33 µM (inactive)	O=S(=O)(c1ccc(-c2csc(N/N=C/c3ccco3)n2)cc1)N1CCCC1

EC50	Structure (SMILES)
> 33 µM (inactive)	COc1cccc(OC)c1-c1cc(C(=O)N[C@@H](CC(C)C)C(=O)OC(C)(C)C)nn1-c1ccnc2cc(Cl)ccc12
> 33 µM (inactive)	COc1cc2c3nnc(-c4ccc(F)cc4)c-3cn(Cc3ccc(N(C)C)cc3)c2cc1OC
> 33 µM (inactive)	COc1cc2c3nnc(-c4ccc(Cl)cc4)c-3cn(Cc3ccc(F)cc3)c2cc1OC
> 33 µM (inactive)	COc1ccc2c3nnc(-c4ccc(C)cc4)c-3cn(Cc3ccc(C)cc3)c2c1
> 33 µM (inactive)	CC(C)C[C@H](NC(=O)c1nc(-c2ccncc2)c(-c2ccccc2)s1)C(=O)O
> 33 µM (inactive)	O=C(O)c1nc(-c2ccnc3ccccc23)c(-c2ccccc2)s1
inactive	COc1cc2nc(C3CCCC3)nc(N3CCN(c4ccccc4OC)CC3)c2cc1OC
> 33 µM (inactive)	COc1ccc(C(=O)c2cn(CC3CC3)c3ccccc3c2=O)cc1
> 33 µM (inactive)	COc1ccc(/C=N/Nc2nc(-c3ccc(S(=O)(=O)N(C)C)cc3)cs2)cc1
> 33 µM (inactive)	CN(C)S(=O)(=O)c1ccc(-c2csc(N/N=C/c3cccs3)n2)cc1
inactive	COc1ccc2nc(C3CCC3)nc(N3CCN(c4ccccc4OC)CC3)c2c1
> 33 µM (inactive)	COc1cc2c3nnc(-c4ccc(F)cc4)c-3cn(Cc3ccncc3)c2cc1OC
> 33 µM (inactive)	O=C(c1ccccc1)c1cn(Cc2ccccc2)c2ccccc2c1=O
> 33 µM (inactive)	COc1ccc(-c2nnc3c4cc(OC)c(OC)cc4n(Cc4ccccc4)cc2-3)cc1
> 33 µM (inactive)	Cc1ccc(C)c(-n2ncc3c(N4CCN(c5ccccc5)CC4)ncnc32)c1
> 33 µM (inactive)	CCn1cc2c(-c3ccc(F)cc3)nnc-2c2cc(OC)c(OC)cc21
> 33 µM (inactive)	Cc1ccc(-n2ncc3c(N4CCN(c5ccc(Cl)c(Cl)c5)CC4)ncnc32)c(C)c1
> 33 µM (inactive)	COc1cc2c3nnc(-c4ccc(F)cc4)c-3cn(Cc3cccc(C)c3)c2cc1OC
> 33 µM (inactive)	CCc1ccc(-c2nnc3c4cc(OC)c(OC)cc4n(Cc4ccccc4)cc2-3)cc1
> 33 µM (inactive)	CCn1cc(C(=O)c2ccc(F)cc2)c(=O)c2cc(OC)c(OC)cc21
> 33 µM (inactive)	COc1cc2nc(C3CCC3)nc(N3CCN(c4ccccc4C)CC3)c2cc1OC
> 33 µM (inactive)	COc1ccc2c(c1)c1nnc(-c3ccc(F)cc3)c-1cn2Cc1ccc(F)cc1

EC50	Structure (SMILES)
> 33 µM (inactive)	COc1ccc2c(c1)c(=O)c(C(=O)c1ccc(F)cc1)cn2Cc1ccccc1
> 33 µM (inactive)	COc1cc2c3nnc(-c4ccc(C)cc4)c-3cn(Cc3ccc(C)cc3)c2cc1OC
> 33 µM (inactive)	CC(C)C[C@H](NC(=O)c1cn(-c2ccnc3cc(Cl)ccc23)c(-c2ccccc2)n1)C(=O)O
> 33 µM (inactive)	COc1cccc(N2CCN(c3ncnc4c3cnn4-c3ccc(C)cc3C)CC2)c1
inactive	COc1cc2c3nnc(-c4ccc(F)cc4)c-3cn(Cc3ccccc3)c2cc1OC
> 33 µM (inactive)	COc1ccc(C(=O)c2cn(CCc3ccccc3)c3ccccc3c2=O)cc1
> 33 µM (inactive)	COc1cccc(OC)c1-c1nc(C(=O)NC2(C(=O)O)C3CC4CC(C3)CC2C4)cn1-c1ccnc2cc(Cl)ccc12 (stereo not drawn)
> 33 µM (inactive)	Cc1cccc(-n2ncc3c(N4CCN(c5ccccc5)CC4)ncnc32)c1
> 33 µM (inactive)	COc1cc2c3nnc(-c4ccc(F)cc4)c-3cn(CCc3ccccc3)c2cc1OC
> 33 µM (inactive)	Cc1ccc(-n2ncc3c(N4CCN(c5cccc(Cl)c5)CC4)ncnc32)c(C)c1
> 33 µM (inactive)	COc1cc2c(=O)c(C(=O)c3ccc(F)cc3)cn(CC3CC3)c2cc1OC
> 33 µM (inactive)	COc1ccccc1-c1cc(C(=O)O)nn1-c1ccnc2cc(Cl)ccc12
> 33 µM (inactive)	COc1cccc(OC)c1-c1nc(C(=O)N[C@@H](CC(C)C)C(=O)O)cn1-c1ccc(C)cc1
> 33 µM (inactive)	COc1ccc(Cn2c(SCc3cc(C)ccc3C)nc3cc(OC)c(OC)cc3c2=N)cc1Cl
inactive	COc1cc2c3nnc(-c4ccc(C)cc4)c-3cn(Cc3ccc(F)cc3)c2cc1OC
> 33 µM (inactive)	COc1cc2nc(C)nc(N3CCN(c4ccccc4OC)CC3)c2cc1OC
> 33 µM (inactive)	COc1cccc(N2CCN(c3nc(C4CCC4)nc4cc(OC)c(OC)cc34)CC2)c1
> 33 µM (inactive)	COc1ccc(C(=O)c2cn(Cc3ccc(C)cc3)c3ccccc3c2=O)cc1
> 33 µM (inactive)	COc1cc2c3nnc(-c4ccc(Cl)cc4)c-3cn(Cc3ccc(C)cc3)c2cc1OC
> 33 µM (inactive)	CCc1ccc(-c2nnc3c4cc(OC)c(OC)cc4n(Cc4ccc(F)cc4)cc2-3)cc1
> 33 µM (inactive)	COc1ccc(Cn2c(SCc3ccc(C)cc3)nc3cc(OC)c(OC)cc3c2=N)cc1Cl
> 33 µM (inactive)	Cc1ccc(-n2ncc3c(N4CCN(c5ccccc5)CC4)ncnc32)cc1C

EC50	Structure (SMILES)
> 33 µM (inactive)	COc1cc2nc(C3CCC3)nc(N3CCN(c4ccccc4)CC3)c2cc1OC
> 33 µM (inactive)	Cc1ccc(Cn2cc3c(-c4ccc(Cl)cc4)nnc-3c3cc4c(cc32)OCO4)cc1
> 33 µM (inactive)	CC(=O)c1ccc(N2CCN(c3ncnc4c3cnn4-c3ccc(C)cc3C)CC2)cc1
> 33 µM (inactive)	Cc1ccc(-n2ncc3c(N4CCN(c5cc(C)ccc5C)CC4)ncnc32)c(C)c1
> 33 µM (inactive)	Cc1cc(Cl)ccc1-n1ncc2c(N3CCN(c4ccccc4)CC3)ncnc21
> 33 µM (inactive)	COc1cc2c(=O)c(C(=O)c3ccc(F)cc3)cn(Cc3ccc(Cl)cc3)c2cc1OC
> 33 µM (inactive)	CCOc1cc2nc(-c3ccc(OC)c(OC)c3)nc(N3CCN(c4ccccc4)CC3)c2cc1OC
> 33 µM (inactive)	CC(C)C[C@H](NC(=O)c1nc(-c2ccnc3ccccc23)c(-c2ccccc2)s1)C(=O)O
> 33 µM (inactive)	COc1ccc(Cn2c(SCc3cccc(C(F)(F)F)c3)nc3cc(OC)c(OC)cc3c2=N)cc1Cl
> 33 µM (inactive)	COc1cc2c3nnc(-c4ccc(F)cc4)c-3cn(Cc3ccccc3N(C)C)c2cc1OC
inactive	COc1cc2c3nnc(-c4ccc(C)c(C)c4)c-3cn(Cc3ccc(C)cc3)c2cc1OC
> 33 µM (inactive)	CN(C)S(=O)(=O)c1ccc(-c2csc(N/N=C/c3ccccc3)n2)cc1
> 33 µM (inactive)	COc1ccc(C(=O)c2cn(Cc3ccc(OC(F)(F)F)cc3)c3ccccc3c2=O)cc1
> 33 µM (inactive)	COc1cc2nc(Cc3ccccc3)nc(N3CCN(c4ccccc4OC)CC3)c2cc1OC
> 33 µM (inactive)	COc1cccc2c(C(=O)N[C@@H](CC(C)C)C(=O)O)cn(-c3ccnc4ccccc34)c12
> 33 µM (inactive)	COc1ccc(Cn2c(SCc3ccccc3)nc3cc(OC)c(OC)cc3c2=N)cc1Cl
> 33 µM (inactive)	COc1ccccc1-c1cc(C(=O)N[C@@H](CC(C)C)C(=O)OC(C)(C)C)nn1-c1ccnc2cc(Cl)ccc12
> 33 µM (inactive)	CN(C)S(=O)(=O)c1ccc(-c2csc(N/N=C/c3cccc(Cl)c3)n2)cc1
> 33 µM (inactive)	COc1cc2c3nnc(-c4ccc(C)c(C)c4)c-3cn(Cc3ccc(F)cc3)c2cc1OC
> 33 µM (inactive)	COc1ccc(Cn2cc(C(=O)c3ccc(OC)cc3)c(=O)c3ccccc32)cc1
> 33 µM (inactive)	COc1cc2nc(SCc3ccncc3)n(Cc3cccc(C(F)(F)F)c3)c(=N)c2cc1OC
> 33 µM (inactive)	COc1ccc2c(c1)c1nnc(-c3ccc(F)cc3)c-1cn2Cc1ccc(C)cc1

From PubChem BioAssay AID602427 (Sanford-Burnham Center for Chemical Genomics, 2012)
